According to US7592457B2 (Korea Research Institute of Chemical Technology, priority 2004, dated 2009):
Like-named read-outs stand apart in the source and are kept apart here.

Columns and labels:
[1] = biological target: T1, hD2L receptor (Homo sapiens, UniProt P14416); assay: Radioligand binding, dopamine D2 ([3H]spiperone); details: read-out: Binding affinity (Inhibition rate % at 10 μM) D2
T1 construct: purchased BioSignal Packard Inc., Montreal, Canada

[2] = biological target: D1 (Homo sapiens, UniProt P21728); assay: Radioligand binding for selectivity, D1; details: read-out: Binding affinity (Inhibition rate % at 10 μM) D1
[3] = biological target: T2, 5-HT2a (Homo sapiens, UniProt P28223); assay: Radioligand binding, 5-HT2a ([3H]Ketanserin); details: read-out: Binding affinity (Inhibition rate % at 10 μM) 5HT2a
T2 construct: purchased Euroscreen/BioSignal Packard Inc
Protocol: (§1) Radioligand bindings were performed according to the test method provided by the supplier of receptor membrane (Euroscreen/BioSignal Packard Inc.).

[4] = biological target: T3, hD4.2 receptor (Homo sapiens, UniProt P21917, DEL265-296); assay: Radioligand binding, dopamine D4 ([3H]YM-09151-2); details: read-out: Binding affinity (Inhibition rate % at 10 μM) D4
T3 construct: purchased BioSignal Packard Inc., Montreal, Canada
T3 sequence (P21917 with tags, fused parts or gaps DEL265-296): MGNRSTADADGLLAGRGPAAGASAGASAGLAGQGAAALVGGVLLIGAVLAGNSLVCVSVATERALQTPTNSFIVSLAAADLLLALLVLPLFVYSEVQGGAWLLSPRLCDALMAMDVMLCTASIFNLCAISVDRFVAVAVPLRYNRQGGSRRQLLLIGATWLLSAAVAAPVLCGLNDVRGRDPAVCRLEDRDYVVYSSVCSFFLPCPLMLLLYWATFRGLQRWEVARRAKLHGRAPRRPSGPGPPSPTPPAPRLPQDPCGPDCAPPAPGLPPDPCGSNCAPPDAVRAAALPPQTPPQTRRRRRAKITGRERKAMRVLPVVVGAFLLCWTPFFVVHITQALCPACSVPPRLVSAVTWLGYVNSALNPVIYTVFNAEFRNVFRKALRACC

[5] = biological target: T4, 5-HT1a (Homo sapiens, UniProt P08908); assay: Radioligand binding, 5-HT1a ([3H]8-OH-DPAT); details: read-out: Binding affinity (Inhibition rate % at 10 μM) 5HT1a
T4 construct: purchased Euroscreen/BioSignal Packard Inc
T4 sequence (P08908 1-422): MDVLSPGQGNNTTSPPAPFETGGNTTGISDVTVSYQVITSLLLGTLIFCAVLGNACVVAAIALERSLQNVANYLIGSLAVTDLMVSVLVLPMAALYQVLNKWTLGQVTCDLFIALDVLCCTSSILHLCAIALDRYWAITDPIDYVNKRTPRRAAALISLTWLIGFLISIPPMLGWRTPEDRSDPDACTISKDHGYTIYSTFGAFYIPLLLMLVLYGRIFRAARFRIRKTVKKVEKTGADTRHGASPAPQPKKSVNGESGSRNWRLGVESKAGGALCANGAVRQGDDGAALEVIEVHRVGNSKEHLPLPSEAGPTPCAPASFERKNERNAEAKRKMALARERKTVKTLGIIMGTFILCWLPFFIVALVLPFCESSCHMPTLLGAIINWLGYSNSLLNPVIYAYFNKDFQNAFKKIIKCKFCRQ
Protocol: as §1

[6] = biological target: T5, human serotonin 5-HT6 receptor (Homo sapiens, UniProt P50406); assay: [3H]LSD binding at cloned 5-HT6 receptors; details: for inhibition at 10 µM: read-out: Binding affinity (Inhibition rate % at 10 μM) 5HT6
T5 construct: made in house; host or cells: Sf21 insect cells (pBacPAK8 baculovirus vector)

[7] = biological target: T6, 5-HT2c (Homo sapiens, UniProt P28335); assay: Radioligand binding, 5-HT2c ([3H]Mesulergine); details: read-out: Binding affinity (Inhibition rate % at 10 μM) 5HT2c
T6 construct: purchased Euroscreen/BioSignal Packard Inc
T6 sequence (P28335 33-458): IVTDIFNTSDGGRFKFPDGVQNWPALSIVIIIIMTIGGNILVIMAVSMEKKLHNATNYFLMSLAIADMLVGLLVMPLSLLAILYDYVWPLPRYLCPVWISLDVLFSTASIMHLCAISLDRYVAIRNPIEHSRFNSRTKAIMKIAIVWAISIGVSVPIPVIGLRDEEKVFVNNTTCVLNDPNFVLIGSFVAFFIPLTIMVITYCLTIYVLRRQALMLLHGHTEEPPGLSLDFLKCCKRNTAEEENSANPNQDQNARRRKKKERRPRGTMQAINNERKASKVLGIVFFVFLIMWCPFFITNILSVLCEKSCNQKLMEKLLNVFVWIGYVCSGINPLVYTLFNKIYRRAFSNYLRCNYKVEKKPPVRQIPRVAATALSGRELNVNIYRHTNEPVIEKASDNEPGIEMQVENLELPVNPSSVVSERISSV
Protocol: as §1

[8] = biological target: T7, 5-HT7 (Homo sapiens, UniProt P34969); assay: Radioligand binding, 5-HT7 ([3H]LSD); details: read-out: Binding affinity (Inhibition rate % at 10 μM) 5HT7
T7 construct: purchased Euroscreen/BioSignal Packard Inc
Protocol: as §1

[9] = biological target: T8, hD3 receptor (Homo sapiens, UniProt P35462); assay: Radioligand binding, dopamine D3 ([3H]spiperone); details: read-out: Binding affinity (Inhibition rate % at 10 μM) D3
T8 construct: purchased BioSignal Packard Inc., Montreal, Canada

[10] = [3H]LSD 1.87 nM, cloned receptor membranes, 37° C., 60 min, read-out: IC50

T2 sequence (P28223 whole entry): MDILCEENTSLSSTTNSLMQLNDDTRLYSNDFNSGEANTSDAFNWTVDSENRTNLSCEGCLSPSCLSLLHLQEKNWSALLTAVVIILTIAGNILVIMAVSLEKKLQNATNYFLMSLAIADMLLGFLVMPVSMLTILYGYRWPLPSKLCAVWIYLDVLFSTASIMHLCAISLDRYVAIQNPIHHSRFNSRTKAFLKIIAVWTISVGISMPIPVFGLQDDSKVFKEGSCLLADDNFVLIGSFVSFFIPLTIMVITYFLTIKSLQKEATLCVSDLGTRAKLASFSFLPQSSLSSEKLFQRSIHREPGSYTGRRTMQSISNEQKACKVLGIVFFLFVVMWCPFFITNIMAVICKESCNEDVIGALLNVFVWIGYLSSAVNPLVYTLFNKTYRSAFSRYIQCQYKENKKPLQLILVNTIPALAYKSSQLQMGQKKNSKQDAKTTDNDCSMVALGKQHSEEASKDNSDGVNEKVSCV
T7 sequence (P34969 whole entry): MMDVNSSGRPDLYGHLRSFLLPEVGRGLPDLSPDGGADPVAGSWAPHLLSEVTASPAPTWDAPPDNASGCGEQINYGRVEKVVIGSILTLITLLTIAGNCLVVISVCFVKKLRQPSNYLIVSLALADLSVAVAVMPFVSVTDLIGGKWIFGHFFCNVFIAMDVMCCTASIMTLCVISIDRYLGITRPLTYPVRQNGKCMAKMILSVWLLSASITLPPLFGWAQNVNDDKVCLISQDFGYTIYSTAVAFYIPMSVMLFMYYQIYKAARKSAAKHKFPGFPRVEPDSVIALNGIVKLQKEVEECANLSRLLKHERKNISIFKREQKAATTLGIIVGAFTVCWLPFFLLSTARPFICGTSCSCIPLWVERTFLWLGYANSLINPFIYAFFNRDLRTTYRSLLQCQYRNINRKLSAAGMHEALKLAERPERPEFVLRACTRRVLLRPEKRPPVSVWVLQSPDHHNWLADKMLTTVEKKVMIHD
T5 sequence (P50406 whole entry): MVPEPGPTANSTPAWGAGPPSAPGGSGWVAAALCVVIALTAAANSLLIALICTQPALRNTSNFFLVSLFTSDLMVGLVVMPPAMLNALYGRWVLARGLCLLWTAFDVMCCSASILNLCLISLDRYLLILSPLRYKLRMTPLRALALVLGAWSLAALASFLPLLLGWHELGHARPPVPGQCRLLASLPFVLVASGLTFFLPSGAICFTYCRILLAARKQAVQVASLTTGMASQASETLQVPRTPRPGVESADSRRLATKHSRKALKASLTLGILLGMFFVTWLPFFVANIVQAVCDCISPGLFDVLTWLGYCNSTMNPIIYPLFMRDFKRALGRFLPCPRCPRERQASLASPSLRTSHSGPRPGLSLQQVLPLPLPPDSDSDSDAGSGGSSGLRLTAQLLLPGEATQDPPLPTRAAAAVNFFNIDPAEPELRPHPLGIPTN
T1 sequence (P14416 whole entry): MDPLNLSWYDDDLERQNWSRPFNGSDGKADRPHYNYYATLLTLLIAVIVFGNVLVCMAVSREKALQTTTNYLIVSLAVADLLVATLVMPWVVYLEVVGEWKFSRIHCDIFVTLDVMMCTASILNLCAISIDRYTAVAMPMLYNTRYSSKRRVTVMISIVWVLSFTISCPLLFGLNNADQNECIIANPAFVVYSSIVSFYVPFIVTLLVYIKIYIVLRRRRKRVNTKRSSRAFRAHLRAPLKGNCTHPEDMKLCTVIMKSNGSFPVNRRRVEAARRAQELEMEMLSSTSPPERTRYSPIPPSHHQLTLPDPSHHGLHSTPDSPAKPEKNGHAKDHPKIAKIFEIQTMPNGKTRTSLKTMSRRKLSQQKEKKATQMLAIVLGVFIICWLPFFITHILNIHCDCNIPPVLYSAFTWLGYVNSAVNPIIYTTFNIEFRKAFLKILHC
T8 sequence (P35462 whole entry): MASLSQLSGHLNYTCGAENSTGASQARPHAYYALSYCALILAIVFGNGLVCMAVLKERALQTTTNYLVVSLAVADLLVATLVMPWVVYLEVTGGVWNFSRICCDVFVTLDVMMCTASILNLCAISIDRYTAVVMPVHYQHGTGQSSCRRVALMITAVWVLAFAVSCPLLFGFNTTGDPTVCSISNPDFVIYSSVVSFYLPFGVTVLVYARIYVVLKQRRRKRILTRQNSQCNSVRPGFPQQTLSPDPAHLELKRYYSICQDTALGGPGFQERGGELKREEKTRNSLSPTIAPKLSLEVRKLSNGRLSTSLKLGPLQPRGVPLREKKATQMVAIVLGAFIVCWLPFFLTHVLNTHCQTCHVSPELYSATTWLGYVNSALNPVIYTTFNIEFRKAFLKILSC
D1, sequence (P21728 whole entry): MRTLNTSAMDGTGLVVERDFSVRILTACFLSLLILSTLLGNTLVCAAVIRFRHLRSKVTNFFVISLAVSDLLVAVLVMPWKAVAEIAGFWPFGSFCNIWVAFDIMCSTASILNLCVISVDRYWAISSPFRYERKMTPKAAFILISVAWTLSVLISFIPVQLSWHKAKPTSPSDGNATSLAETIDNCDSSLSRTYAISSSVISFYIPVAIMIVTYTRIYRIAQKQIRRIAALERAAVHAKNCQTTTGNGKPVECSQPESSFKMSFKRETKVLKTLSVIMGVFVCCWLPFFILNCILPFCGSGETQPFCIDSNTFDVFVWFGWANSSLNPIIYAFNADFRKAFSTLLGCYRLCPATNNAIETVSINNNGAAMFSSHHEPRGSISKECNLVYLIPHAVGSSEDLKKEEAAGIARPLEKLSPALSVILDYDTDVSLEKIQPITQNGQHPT

| Compound | inhibition at 10 µM [1] | inhibition at 10 µM [2] | inhibition at 10 µM [3] | inhibition at 10 µM [4] | inhibition at 10 µM [5] | IC50 [6, 10] | inhibition at 10 µM [6] | inhibition at 10 µM [7] | melting point | inhibition at 10 µM [8] | inhibition at 10 µM [9] | IC50 [6] | 5-HT6 affinity compared with known selective antagonists ([6]; in words) |
| --- | --- | --- | --- | --- | --- | --- | --- | --- | --- | --- | --- | --- | --- |
| CC1(c2ccc(OCc3ccccc3)c(Br)c2)C(=O)Nc2cc(Cl)cc(Cl)c2C1=O (stereo not drawn) [Example 23, 3-(4-benzyloxy-3-bromo-phenyl)-5,7-dichloro-3-methyl-1H-quinoline-2,4-dione] | 9.6% | 16.8% | 26.4% | 0.7% | 64.9% | 1260 nM | 70.6% | 21.9% | 189 to 190 °C | 27.4% | 32.5% | – | – |
| CC1(c2ccc(O)c(Br)c2)C(=O)Nc2cc(Cl)cc(Cl)c2C1=O (stereo not drawn) [Example 24, 3-(3-bromo-4-hydroxy-phenyl)-5,7-dichloro-3-methyl-1H-quinoline-2,4-dione] | 5% | 13% | 11.5% | 0% | 50.4% | 126 nM | 71% | 22.8% | 228 to 229 °C | 5.5% | 16.6% | – | – |
| C[C@H](NC(=O)Oc1ccc(C2(C)C(=O)Nc3cc(Cl)cc(Cl)c3C2=O)cc1)c1ccccc1 (stereo partly drawn) [Example 25] | 8.4% | 54.1% | 16.7% | 0% | 35.9% | – | 69.8% | 4% | 110 to 115 °C | 30.6% | 10.2% | 816 nM | – |
| C[C@H](NC(=O)Oc1cccc(C2(C)C(=O)Nc3cc(Cl)cc(Cl)c3C2=O)c1)c1ccccc1 (stereo partly drawn) [Example 26] | 26.5% | 50.5% | 38.1% | 0.5% | 0% | – | 70% | 9.1% | 91 to 94 °C | 12.7% | 14.8% | 980 nM | – |
| COc1cc(C2(C)C(=O)Nc3ccccc3C2=O)ccc1O (stereo not drawn) [Example 31, 3-(4-hydroxy-3-methoxy-phenyl)-3-methyl-1H-quinoline-2,4-dione] | 9.2% | 37.1% | 43.5% | 0% | 31.2% | 801 nM | 70.6% | 10.2% | 168 to 169 °C | 16.4% | 9.8% | – | – |
| CC1(c2ccc(O)c(O)c2)C(=O)Nc2ccccc2C1=O (stereo not drawn) [Example 32, 3-(3,4-dihydroxy-phenyl)-3-methyl-1H-quinoline-2,4-dione] | 16% | 39% | 26.9% | 0% | 13.5% | 769 nM | 71% | 31.9% | 259 to 261 °C | 20.1% | 12.6% | – | – |
| COc1ccc(C2(C)C(=O)Nc3cc(OC)cc(Cl)c3C2=O)cc1 (stereo not drawn) [Example 35, 5-chloro-7-methoxy-3-(4-methoxy-phenyl)-3-methyl-1H-quinoline-2,4-dione] | 5.1% | 43.1% | 20.7% | 1.7% | 52.3% | 1360 nM | 69.1% | 16.4% | 222 to 224 °C | 22.4% | 6.4% | – | – |
| CC1(c2ccc([N+](=O)[O-])cc2)C(=O)Nc2cc(Cl)ccc2C1=O (stereo not drawn) [Example 37, 7-chloro-3-methyl-3-(4-nitro-phenyl)-1H-quinoline-2,4-dione] | 8.3% | 49.2% | 49.2% | 0% | 10.4% | 1000 nM | 73.3% | 1.4% | 209 to 210 °C | 21% | 10.5% | – | – |
| CC1(c2ccc(N)cc2)C(=O)Nc2cc(Cl)ccc2C1=O (stereo not drawn) [Example 38, 3-(4-amino-phenyl)-7-chloro-3-methyl-1H-quinoline-2,4-dione] | 16.5% | 44.3% | 31.5% | 5.8% | 51.9% | 585 nM | 74.1% | 20.7% | 155 to 156 °C | 17.4% | 16.8% | – | – |
| CN(C)c1ccc(C2(C)C(=O)Nc3cc(Cl)cc(Cl)c3C2=O)cc1 (stereo not drawn) [Example 40, 5,7-dichloro-3-(4-dimethylamino-phenyl)-3-methyl-1H-quinoline-2,4-dione] | 10.5% | 40.8% | 42.2% | 0% | 50.2% | 563 nM | 67.2% | 6.5% | 268 to 269 °C | 30.3% | 4.5% | – | – |
| CCN(CC)c1ccc(C2(C)C(=O)Nc3cc(Cl)cc(Cl)c3C2=O)cc1 (stereo not drawn) [Example 42, 5,7-dichloro-3-(4-diethylamino-phenyl)-3-methyl-1H-quinoline-2,4-dione] | 15.7% | 38.7% | 16.9% | 8.5% | 6.5% | 15 nM | 69.5% | 13.7% | 247 to 249 °C | 10.1% | 25.3% | – | almost same affinities as or better affinities than known selective antagonists |
| COc1ccc(C2(C)C(=O)Nc3cc(N4CCN(C)CC4)cc(Cl)c3C2=O)cc1 (stereo not drawn) [Example 46, 5-chloro-3-(4-methoxy-phenyl)-3-methyl-7-(4-methyl-piperazine-1-yl)-1H-quinoline-2,4-dione] | 30.4% | 16% | 16.5% | 7.2% | 25.4% | 1460 nM | 67.1% | 10.7% | 201 to 202 °C | 17.8% | 16.7% | – | – |
| CN1CCN(c2ccc3c(c2)NC(=O)C(C)(c2ccc(N)cc2)C3=O)CC1 (stereo not drawn) [Example 50, 3-(4-amino-phenyl)-3-methyl-7-(4-methyl-piperazine-1-yl)-1H-quinoline-2,4-dione] | 8.2% | 34.1% | 21.5% | 0% | 6.7% | 942 nM | 74.5% | 15.4% | 265 to 267 °C | 20.5% | 50.1% | – | – |
